Data from patent US20180044640A1, “CONTRACTILE CELLULAR CONSTRUCT FOR CELL CULTURE” (Agency for Science, Technology and Research, priority 2015, published 2018).
Where two headings read alike, the source gives them in different places.

Legend:
[1] = system: 3D cardiac tissues (hiPSC-derived cardiomyocytes)
Method: To generate 3D cardiac tissues, 12-day differentiated cardiac cells were detached from culture wells using accutase (Stem Cell Technologies), suspended in RPMI-B27medium containing Y-27632 (5 uM) to reach a final concentration of 1.5×10^8 cells/mL. Casting molds were prepared by placing the tissue holder and PDMS molds in 96-well culture plates. For each tissue, 12 μL cell suspension was loaded into the cell loading channel. For florescence-labeled cardiac tissue, 12 μL cell suspension was mixed briefly with ˜20 FluoSpheres polystyrene microspheres (diameter 15 μm, Life Technologies) and pipetted into cell loading channels. The 96-well plates were placed in a 37° C., 5% CO2 culture incubator for 2 hours. 0.20 mL of cell culture medium was then added per well for continued culture. After one day of culture, media was changed to RPMI-B27 medium without Y-27632 and changed every day.
Cardiac tissue contractility was assessed based on the recorded video using IMARIS software. The cardiac tissues were labeled with fluorescence beads, as described above. The video was exported as image stacks for IMARIS tracking analysis. The software can identify the contraction and relaxation events based on the relative positions of the florescence beads during the entire tissue beating sequence. These positions were recorded, and the relevant contractility parameters were calculated from the temporal change of these positions.
Toxicity studies were performed using a Zeiss fluorescence microscope, within a closed environment chamber maintaining constant 37° C. temperature and 5% CO2 humidified air for long time lapse imaging of live cells. An experiment design program in Zen software was used to create an automatic measurement program. For chronic drug response, videos were recorded for each well at every 1 h interval.
The videos were recorded at cumulative concentrations 1 hr before measurement, and processed using IMARIS software.

Cardiac spheroids = assay: Toxicity assay based on ATP activity (CellTiter-Glo 3D cell viability assay); design: species or system human; conditions: 1 hr incubation, normalized to drug-free controls
Method: Cardiac spheroids were incubated with various concentrations of compounds dissolved in culture medium for 1 hr, and cell viability was subsequently measured by CellTiter-Glo® 3D cell viability assay (Promega), which determines the number of viable cells in culture based on quantitation of the ATP present. Data is normalized to drug-free controls. Data from the same treatment on 3 occasions were averaged to represent the mean ATP measurement.

[2] = system: iPSC-derived cardiomyocytes monolayer; type: cell-based; conditions: human; for Time at which significant reduced beating speed was observed / Time of total arrest of beating: 2 days
Method: The 12-day differentiated cardiomyocytes were detached using accutase and suspended in RPMI-B27 medium containing Y-27632 (5 uM). The cell suspension was mixed with FluoSpheres polystyrene microspheres, and loaded into matrigel or fibronectin coated 384-well microplate (Greiner) or 96-well tissue culture plates at 0.25˜0.30 *10^6cells/50˜100 microspheres/cm^2.
The videos were recorded for each well at every 1 hr interval and processed using IMARIS software.

Structure (SMILES): CCS(=O)(=O)N(C)[C@H]1c2cc(C#N)ccc2OC(C)(C)[C@@H]1O (racemic) [chromanol 293B]
- Concentration at which complete arrest of contraction was observed [1]: 200 µM

Structure (SMILES): CC1(C)S[C@@H]2[C@H](NC(=O)[C@H](N)c3ccccc3)C(=O)N2[C@H]1C(=O)O [ampicillin, Ampicillin]
- Concentration up to which negligible / no significant toxicity was detected (ATP-based cell viability) (Cardiac spheroids): ≤ 10000 µM
- Concentration up to which negligible beating rate changes were observed ([1]; human, 1 h): up to 1 mM

Structure (SMILES): CC[C@H]1OC(=O)[C@H](C)[C@@H](O[C@H]2C[C@@](C)(OC)[C@@H](O)[C@H](C)O2)[C@H](C)[C@@H](O[C@@H]2O[C@H](C)C[C@H](N(C)C)[C@H]2O)[C@](C)(O)C[C@@H](C)C(=O)[C@H](C)[C@@H](O)[C@]1(C)O [erythromycin]
- Concentration up to which negligible / no significant toxicity was detected (ATP-based cell viability) (Cardiac spheroids): up to 500 μM
- Concentration at which complete arrest of contraction was observed ([1]; human, 1 h): 10 µM

Structure (SMILES): CN(C)C(=N)N=C(N)N [metformin]
- Change in beating rates [1]: less pronounced changes in beating rates

Structure (SMILES): N=C(N)c1ccc(OCCCCCOc2ccc(C(=N)N)cc2)cc1 [pentamidine, Pentamidine]
- Concentration at which complete arrest of beating was observed ([2]; 1 h): 100 µM
- Concentration showing pronounced changes in contraction speed ([2]; 1 h): 10 µM
- Time at which significant reduced beating speed was observed ([2]; 5 μM): 28 h
- Time of total arrest of beating ([2]; 5 μM): 44 h
- Time at which significant reduced beating speed was observed ([2]; 10 μM): 4 h
- Time of total arrest of beating ([2]; 10 μM): 30 h

Structure (SMILES): C=C[C@H]1C[N@@]2CC[C@H]1C[C@@H]2[C@@H](O)c1ccnc2ccc(OC)cc12 [quinidine]
- Concentration at which complete arrest of contraction was observed ([1]; human, 1 h): 10 µM

Structure (SMILES): CN(CCOc1ccc(CC2SC(=O)NC2=O)cc1)c1ccccn1 (stereo not shown) [rosiglitazone, Rosiglitazone]
- Concentration at which complete arrest of contraction was observed ([1]; human, 1 h): 50 µM

Structure (SMILES): Cc1c(C)c2c(c(C)c1O)CCC(C)(COc1ccc(CC3SC(=O)NC3=O)cc1)O2 (stereo not shown) [troglitazone]
- Concentration at which complete arrest of contraction was observed ([1]; human, 1 h): 50 µM

Structure (SMILES): N[C@@H]1[C@H]2CN(c3nc4c(cc3F)c(=O)c(C(=O)O)cn4-c3ccc(F)cc3F)C[C@@H]12 [trovafloxacin]
- Concentration at which complete arrest of contraction was observed ([1]; human, 1 h): 100 µM
